According to patent US9469650B2, “Melampomagnolide B derivatives” (BOARD OF TRUSTEES OF THE UNIVERSITY OF ARKANSAS, priority 2013, dated 2016):
Read-outs that look alike come from different tables or passages of the source.

Legend:
[1] = tested on: TK-10
[2] = tested on: BT-549
[3] = tested on: CAKI-1
[4] = tested on: A498
[5] = tested on: M14
[6] = tested on: OVCAR-8
[7] = tested on: SNB-75
[8] = tested on: 786-0
[9] = tested on: MOLT-4
[10] = tested on: HT29
[11] = tested on: UACC-257
[12] = tested on: HS 578T
[13] = tested on: UO-31
[14] = tested on: HCT-15; assay: panel of 60 human tumor cell lines, growth inhibition (Colon Cancer); settings: for GI50 / TGI / Percent Growth / Mean Optical Densities: HCT-15
[15] = tested on: NCI-H322M
[16] = tested on: NCI-H460
[17] = tested on: UACC-62
[18] = tested on: DU-145
[19] = tested on: MALME-3M; assay: panel of 60 human tumor cell lines, growth inhibition (Melanoma)
[20] = tested on: HOP-62
[21] = tested on: RXF 393
[22] = tested on: OVCAR-5
[23] = tested on: MCF7
[24] = tested on: SK-MEL-2
[25] = tested on: SK-OV-3
[26] = tested on: SW-620
[27] = tested on: PC-3
[28] = tested on: A549/ATCC
[29] = tested on: IGROV1
[30] = tested on: SR
[31] = tested on: SK-MEL-28
[32] = tested on: SF-295
[33] = tested on: HCT-15
[34] = tested on: NCI-H23
[35] = tested on: MDA-MB-435
[36] = tested on: NCI-H522
[37] = tested on: HOP-92
[38] = tested on: SF-268
[39] = tested on: SN12C
[40] = tested on: NCI-H226
[41] = tested on: U251
[42] = tested on: CCRF-CEM
[43] = tested on: SK-MEL-5
[44] = tested on: panel of 60 human tumor cell lines; assay: panel of 60 human tumor cell lines, whole panel or sub-panel (single concentration screen, summaries); format: cell-based; settings: single concentration of 10^−5 M, read-out: growth inhibition in at least eight human cancer cell lines from the panel
[45] = tested on: AML 052308 cells
Text: Derivatives were screened for antileukemic activity against AML cells in culture (See FIGS. 1-7).

[46] = tested on: RPMI-8226; assay: panel of 60 human tumor cell lines, growth inhibition (Leukemia)
[47] = tested on: HL-60(TB); assay: cells; settings: Homo sapiens
[48] = MALME-3M, Log10 Concentration −4.0
[49] = MALME-3M, Log10 Concentration −5.0
[50] = MALME-3M, Log10 Concentration −6.0
[51] = MALME-3M, Log10 Concentration −7.0
[52] = MALME-3M, Log10 Concentration −8.0

Question: Which results are given for C=C1C(=O)O[C@H]2[C@H]1CC/C(COC(=O)NCCN1CCCCC1)=C\CC[C@@]1(C)O[C@@H]21 [JVM 2-13]?
Answer: CC50 [1]: 35.8 µM; CC50 [2]: 44.3 µM; CC50 [3]: 40.4 µM; CC50 [4]: 53.1 µM; CC50 [5]: 55.1 µM; CC50 [6]: 58.4 µM; CC50 [7]: 48.8 µM; CC50 [8]: 56.2 µM; CC50 [9]: > 100 µM; CC50 [10]: 50.4 µM; CC50 [11]: 49.9 µM; CC50 [12]: > 100 µM; CC50 [13]: 49.5 µM; GI50 [14]: 3.08 µM; TGI [14]: 1.31e-05 M; Percent Growth ([14]; Log10 Concentration −4.0): −75%; Percent Growth ([14]; Log10 Concentration −5.0): 10%; Percent Growth ([14]; Log10 Concentration −6.0): 88%; Percent Growth ([14]; Log10 Concentration −7.0): 95%; Percent Growth ([14]; Log10 Concentration −8.0): 91%; CC50 [15]: 61.1 µM; CC50 [16]: 78.1 µM; CC50 [17]: 50.1 µM; CC50 [18]: 42 µM; GI50 ([19]; MALME-3M): 1.47 µM; TGI ([19]; MALME-3M): 4.6e-06 M; Percent Growth [19, 48]: −57%; Percent Growth [19, 49]: −34%; Percent Growth [19, 50]: 67%; Percent Growth [19, 51]: 99%; Percent Growth [19, 52]: 103%; CC50 [20]: 68.5 µM; CC50 [21]: 37.3 µM; CC50 [22]: 55.2 µM; CC50 [23]: 62.5 µM; CC50 [24]: 69.7 µM; CC50 [25]: > 100 µM; CC50 [26]: 50.3 µM; CC50 [27]: 70.9 µM; CC50 [28]: 98.5 µM; CC50 [29]: 81.2 µM; CC50 [30]: > 100 µM; CC50 [31]: 47.2 µM; CC50 [32]: > 100 µM; CC50 [33]: 50.7 µM; CC50 [34]: 65.5 µM; CC50 [35]: 43.8 µM; CC50 [36]: 7.25 µM; CC50 [37]: 42.1 µM; CC50 [38]: 60.2 µM; CC50 [39]: 58.5 µM; CC50 [40]: > 100 µM; CC50 [41]: 64.1 µM; CC50 [42]: > 100 µM; CC50 [43]: 58.3 µM

Question: Which CC50 [1] does the source give for C=C1C(=O)O[C@H]2[C@H]1CC/C(COC(=O)N1CCN(C)CC1)=C\CC[C@@]1(C)O[C@@H]21 [JVM 2-44] here?
Answer: 41.6 µM

Question: And the CC50 [2]?
Answer: 49 µM

Question: What about the CC50 [3] of the same molecule?
Answer: 42.8 µM

Question: And the CC50 [4]?
Answer: > 100 µM

Question: And the CC50 [5]?
Answer: 69.9 µM

Question: And the CC50 [6]?
Answer: 80.6 µM

Question: What about the CC50 [7] of the same molecule?
Answer: 61.2 µM

Question: What about the CC50 [8] of the same molecule?
Answer: 72.3 µM

Question: And the CC50 [9]?
Answer: > 100 µM

Question: What about the CC50 [10] of the same molecule?
Answer: 62 µM

Question: What about the CC50 [11] of the same molecule?
Answer: 54.1 µM

Question: What about the CC50 [12] of the same molecule?
Answer: > 100 µM

Question: What about the CC50 [13] of the same molecule?
Answer: 47.6 µM

Question: What about the GI50 [14] of the same molecule?
Answer: 3.01 µM

Question: And the TGI [14]?
Answer: 1.42E−5

Question: What about the “Mean Optical Densities” value ([14]; Log10 Concentration −4.0) of the same molecule?
Answer: 0.108

Question: What about the “Percent Growth” value ([14]; Log10 Concentration −4.0) of the same molecule?
Answer: −71%

Question: And the “Mean Optical Densities” value ([14]; Log10 Concentration −5.0)?
Answer: 0.643

Question: What about the “Percent Growth” value ([14]; Log10 Concentration −5.0) of the same molecule?
Answer: 13%

Question: And the “Mean Optical Densities” value ([14]; Log10 Concentration −6.0)?
Answer: 2.210

Question: And the “Percent Growth” value ([14]; Log10 Concentration −6.0)?
Answer: 84%

Question: And the “Mean Optical Densities” value ([14]; Log10 Concentration −7.0)?
Answer: 2.370

Question: What about the “Percent Growth” value ([14]; Log10 Concentration −7.0) of the same molecule?
Answer: 92%

Question: What about the “Mean Optical Densities” value ([14]; Log10 Concentration −8.0) of the same molecule?
Answer: 2.435

Question: And the “Percent Growth” value ([14]; Log10 Concentration −8.0)?
Answer: 94%

Question: What about the CC50 [15] of the same molecule?
Answer: > 100 µM

Question: What about the CC50 [16] of the same molecule?
Answer: > 100 µM

Question: What about the CC50 [17] of the same molecule?
Answer: 54.1 µM

Question: What about the CC50 [18] of the same molecule?
Answer: 48.7 µM

Question: And the GI50 ([19]; MALME-3M)?
Answer: 3.33 µM

Question: What about the TGI ([19]; MALME-3M) of the same molecule?
Answer: 1.20E−5

Question: And the “Mean Optical Densities” value [19, 48]?
Answer: 0.168

Question: And the “Percent Growth” value [19, 48]?
Answer: −63%

Question: What about the “Mean Optical Densities” value [19, 49] of the same molecule?
Answer: 0.461

Question: And the “Percent Growth” value [19, 49]?
Answer: 5%

Question: And the “Mean Optical Densities” value [19, 50]?
Answer: 0.705

Question: And the “Percent Growth” value [19, 50]?
Answer: 99%

Question: And the “Mean Optical Densities” value [19, 51]?
Answer: 0.680

Question: And the “Percent Growth” value [19, 51]?
Answer: 89%

Question: And the “Mean Optical Densities” value [19, 52]?
Answer: 0.702

Question: What about the “Percent Growth” value [19, 52] of the same molecule?
Answer: 98%

Question: And the CC50 [20]?
Answer: > 100 µM

Question: And the CC50 [21]?
Answer: 48.6 µM

Question: And the CC50 [22]?
Answer: 68.6 µM

Question: And the CC50 [23]?
Answer: 60.1 µM

Question: What about the CC50 [24] of the same molecule?
Answer: 75.3 µM

Question: What about the CC50 [25] of the same molecule?
Answer: > 100 µM

Question: And the CC50 [26]?
Answer: 58.3 µM

Question: What about the CC50 [27] of the same molecule?
Answer: > 100 µM

Question: And the CC50 [28]?
Answer: > 100 µM

Question: What about the CC50 [29] of the same molecule?
Answer: 76 µM

Question: What about the CC50 [30] of the same molecule?
Answer: > 100 µM

Question: What about the CC50 [31] of the same molecule?
Answer: 56.5 µM

Question: What about the CC50 [32] of the same molecule?
Answer: > 100 µM

Question: What about the CC50 [33] of the same molecule?
Answer: 56.6 µM

Question: What about the CC50 [34] of the same molecule?
Answer: 82.4 µM

Question: What about the CC50 [35] of the same molecule?
Answer: 57.5 µM

Question: And the CC50 [36]?
Answer: 8.2 µM

Question: What about the CC50 [37] of the same molecule?
Answer: 44.3 µM

Question: What about the CC50 [38] of the same molecule?
Answer: 75.7 µM

Question: What about the CC50 [39] of the same molecule?
Answer: 69.7 µM

Question: And the CC50 [40]?
Answer: > 100 µM

Question: What about the CC50 [41] of the same molecule?
Answer: 88.7 µM

Question: What about the CC50 [42] of the same molecule?
Answer: > 100 µM

Question: And the CC50 [43]?
Answer: 58.7 µM

Question: What does the source list for C=C1C(=O)O[C@H]2[C@H]1CC/C(COC(=S)n1ccnc1)=C\CC[C@@]1(C)O[C@@H]21 [JVM 66]?
Answer: GI50 ([14]; Homo sapiens): 6.88 µM; CC50 ([14]; Homo sapiens, HCT-15, read-out: LC50): 89.2 µM; IC (TGI) ([14]; Homo sapiens, HCT-15, read-out: TGI): 27.1 µM; inhibition at 10 µM [44]: > 60%; GI50 ([19]; Homo sapiens, Malme-3M): 14.5 µM; CC50 ([19]; Homo sapiens, Malme-3M, read-out: LC50): > 100 µM; Percent Growth [19, 48]: −32%; Percent Growth [19, 49]: 66%; Percent Growth [19, 50]: 107%; Percent Growth [19, 51]: 95%; Percent Growth [19, 52]: 94%; TGI ([19]; MALME-3M, NCI five dose): 4.74E−5; cytotoxicity compared to MMB [45]: more potent than MMB; fold more cytotoxic than MMB [45]: about 6 fold; fold more potent than parthenolide ([45]; AML 052308 cells): 3 fold; GI50 ([46]; Homo sapiens, RPMI-8226): 11 µM; CC50 ([46]; Homo sapiens, RPMI-8226, read-out: LC50): > 100 µM; Percent Growth ([46]; RPMI-8226, Log10 Concentration −4.0): −31%; Percent Growth ([46]; RPMI-8226, Log10 Concentration −5.0): 53%; Percent Growth ([46]; RPMI-8226, Log10 Concentration −6.0): 102%; Percent Growth ([46]; RPMI-8226, Log10 Concentration −7.0): 103%; Percent Growth ([46]; RPMI-8226, Log10 Concentration −8.0): 103%; TGI ([46]; RPMI-8226, NCI five dose): 4.29E−5; GI50 ([47]; HL-60): 4.05 µM; CC50 ([47]; HL-60, read-out: LC50): 69.5 µM; IC (TGI) ([47]; HL-60, read-out: TGI): 16.2 µM
